From DBAASP
≈ marks a conversion by molar mass, not a printed value.

Tests used:
Assay in all cases: ≥ marks a high value that may be exact or a test limit, other limits are often not marked, values filed in µg/mL are converted to µM
[1] = system: Candida albicans ATCC 90028
[2] = system: Escherichia coli ATCC 25922
[3] = system: Staphylococcus aureus ATCC 25923
[4] = system: Pseudomonas aeruginosa ATCC 27853
[5] = system: Staphylococcus aureus ATCC 29213
[6] = system: Candida albicans ATCC 2002
Candida albicans = system: Candida albicans
Escherichia coli = system: Escherichia coli
Staphylococcus aureus = system: Staphylococcus aureus

Row | SMILES | MIC [1] | MIC [2] | MIC [6] | other results
1 | CC[C@H](C)[C@@H]1NC(=O)[C@H](CCCCN)NC(=O)[C@@H](NC(=O)[C@H](CCCCN)NC(=O)[C@H](CC(C)C)NC(=O)[C@H](CCCCN)NC(=O)[C@H](CC(=O)O)NC(=O)[C@H](CC(C)C)NC(=O)[C@H](CCSC)NC(=O)[C@H](CCC(N)=O)NC(=O)CNC(=O)[C@H](C)NC(=O)[C@H](CC(C)C)NC(=O)[C@H](CC(N)=O)NC(=O)[C@H](CCCCN)NC(=O)[C@H](C)NC(=O)[C@H](C)NC(=O)[C@H](CC(N)=O)NC(=O)[C@H](CCCCN)NC(=O)[C@@H](NC(=O)[C@@H](NC(=O)[C@H](CC(=O)O)NC(=O)[C@H](CCSC)NC(=O)[C@H](CC(C)C)NC(=O)CN)[C@@H](C)O)C(C)C)CSSC[C@@H](C(=O)O)NC(=O)[C@H](CO)NC(=O)CNC(=O)[C@H]([C@@H](C)O)NC1=O [GLMDTVKNAAKNLAGQMLDKLKCKITGSC] | ≥ 100 µM | 50 µM (≈ 153 µg/mL) | – | MIC [3]: > 200 µM
2 | CC[C@H](C)[C@H](NC(=O)[C@H](CCCN=C(N)N)NC(=O)[C@H](CCCCN)NC(=O)[C@@H](NC(=O)[C@H](CCCCN)NC(=O)[C@H](CCCN=C(N)N)NC(=O)[C@@H](N)CCCCN)C(C)C)C(=O)N[C@@H](CCCCN)C(=O)N[C@@H](CCCCN)C(=O)N[C@@H](Cc1ccccc1)C(=O)N[C@@H](CC(C)C)C(=O)N[C@@H](CCCN=C(N)N)C(=O)O [KRKVKRIKKFLR] | 1.25 µM (≈ 2 µg/mL) | 0.625 µM (≈ 1 µg/mL) | – | MIC [4]: 2.5 µM (≈ 4 µg/mL); MIC [5]: 20 µM (≈ 32 µg/mL)
3 | CC[C@H](C)[C@H](NC(=O)[C@@H](NC(=O)[C@@H](NC(=O)[C@@H]1CCCN1C(=O)[C@H](Cc1c[nH]c2ccccc12)NC(=O)[C@H](Cc1ccccc1)NC(=O)[C@H](CCCN=C(N)N)NC(=O)[C@H](CCCCN)NC(=O)[C@@H](NC(=O)[C@@H](N)CCCN=C(N)N)[C@@H](C)CC)C(C)C)C(C)C)C(=O)N[C@@H](CCCN=C(N)N)C(=O)O [RIKRFWPVVIR] | – | – | ≥ 102 µM | –
4 | CC[C@H](C)[C@H](NC(=O)[C@H](CCCCN)NC(=O)[C@H](CO)NC(=O)[C@H](C)NC(=O)[C@@H](NC(=O)[C@H](Cc1ccccc1)NC(=O)CNC(=O)[C@H](CC(C)C)NC(=O)CNC(=O)[C@@H](NC(=O)[C@H](CCCCN)NC(=O)CNC(=O)[C@H](CC(C)C)NC(=O)[C@H](CC(N)=O)NC(=O)[C@H](CCCCN)NC(=O)[C@H](CC(C)C)NC(=O)[C@@H](NC(=O)[C@H](CO)NC(=O)[C@H](CC(C)C)NC(=O)[C@H](CCSC)NC(=O)[C@@H](N)CO)C(C)C)C(C)C)C(C)C)C(=O)N[C@@H](CC(N)=O)C(=O)N[C@@H](CCCCN)C(=O)N[C@@H](CCC(N)=O)C(=O)N[C@@H](CO)C(=O)O [SMLSVLKNLGKVGLGFVASKINKQS] | – | – | – | MIC (Candida albicans): 100 µM (≈ 262 µg/mL); MIC (Escherichia coli): 20 µM (≈ 52.4 µg/mL); MIC (Staphylococcus aureus): 100 µM (≈ 262 µg/mL)

Further lines, with some results ahead:

Row | MIC [1] | MIC [2] | MIC [6] | SMILES | other results
5 | – | – | ≥ 35.8 µM | CC[C@H](C)[C@H](NC(=O)[C@H](C)NC(=O)[C@H](CCCN=C(N)N)NC(=O)[C@H](Cc1ccc(O)cc1)NC(=O)[C@H](CC(C)C)NC(=O)[C@H](CC(N)=O)NC(=O)[C@H](Cc1ccc(O)cc1)NC(=O)CNC(=O)[C@H](C)NC(=O)[C@@H](NC(=O)[C@@H](NC(=O)[C@@H](NC(=O)[C@H](CCCN=C(N)N)NC(=O)[C@@H](NC(=O)[C@@H](N)C(C)C)[C@@H](C)CC)[C@@H](C)O)C(C)C)C(C)C)C(=O)N[C@@H](CCCCN)C(=O)N[C@@H](CCCCN)C(=O)N[C@@H](CCCCN)C(=O)O [VIRTVVAGYNLYRAIKKK] | –
6 | – | – | 25.7 µM (≈ 56.3 µg/mL) | CC[C@H](C)[C@H](NC(=O)[C@H](C)NC(=O)[C@H](CCCN=C(N)N)NC(=O)[C@H](Cc1ccc(O)cc1)NC(=O)[C@H](CC(C)C)NC(=O)[C@H](CC(N)=O)NC(=O)[C@H](Cc1ccc(O)cc1)NC(=O)CNC(=O)[C@H](C)NC(=O)[C@@H](NC(=O)[C@@H](NC(=O)[C@@H](NC(=O)[C@H](CCCN=C(N)N)NC(=O)[C@@H](NC(=O)[C@@H](NC(=O)[C@@H](N)C(C)C)C(C)C)[C@@H](C)CC)[C@@H](C)O)C(C)C)C(C)C)C(=O)N[C@@H](CCCCN)C(=O)N[C@@H](CCCCN)C(=O)N[C@@H](CCCCN)C(=O)O [VVIRTVVAGYNLYRAIKKK] | –
